Laboratory results: patent US6068987A, “Histone deacetylase as target for antiprotozoal agents” (Merck & Co., Inc., priority 1999, dated 2000)

Assays:
[1] = tested on: histone deacetylase (E. tenella oocyst S100 lysate); test: Competitive binding assay with 3H-N-desmethoxyapicidin, E. tenella S100 lysate; details: for selectivity for E. tenella over chicken liver lysate in binding assay: E. tenella versus host (chicken liver) lysate
Experimental: E. tenella oocysts. Approximately 2×10^9 E. Tenella oocysts are suspended in 5 ml of PBS/0.1 mM PMSF, 4 mls of an equal mixture (vol/vol) of 4.0 and 1.0 mm glass beads is added. The glass bead-oocyst mixture is then shaken for 20 minutes to cause disruption of the oocysts. The efficiency of breakage is checked microscopically. The resulting homogenate is separated from the glass beads and centrifuged at 3000×g for 10 min. The supernatant is then subjected to an additional centrifugation at 100,000 g for 1 hr. The pellet is discarded and the supernatant, referred to as the E. Tenella S100 fraction, is retained for binding assays. After estimating the protein concentration, the supernatant (S100) is aliquoted and frozen at -80° C.
(§1) Each assay tube contains a final volume of 1 ml with 1.3 ng/ml of ^3 H-N-desmethoxyapicidin, 150-200 μg of the appropriate S100 supernatant and concentrations of potential HDA inhibitors from 0.001-10 μg/ml.
(§2) (i) labeled substrate. 2-^3 H-N-desmethoxyapicidin (18.69 mCi/mg) is diluted 1:100 in ethanol, and 2 μl added per 1 ml of 50 mM HEPES pH 7.4 with 0.05% Triton®-X100 (HEPES/Triton) is added. This provides 1.3 ng 2-^3 H-N-desmethoxyapicidin /ml of assay (54,000 DPM/ml.)
(§3) (ii) potential HDA inhibitors. The stocks of the test compounds are made up to 2 mg/ml dimethylsulfoxide (DMSO). The stock solution is diluted to 1000, 100, 10, 1 and 0.1 μg/ml in ethanol where a full titration is required. Ethanol is used as a negative control, a 100 μg/ml solution of unlabeled N-desmethoxyapicidin is used as a positive control. Six μl of the test compound solution, the positive and negative controls are used for the assay.
(§4) (iii) supernatant from (a). The S100 sample is diluted to a concentration of 3.0 mg protein/ml (chick liver) or 4 mg protein/ml (parasite) in the HEPES/Triton® buffer. Fifty μl is used for the assay.
(§5) Stock solutions of potential HDA inhibitors (ii) are diluted into 50 mM HEPES/Triton® buffer to achieve a final concentration of test compound in the range of […]. ^3 H-N-desmethoxyapicidin is added to a final concentration of 1.3 ng/ml. 50 μl of parasite or chick liver S100 solution (150-200 μg) is added to each tube. The assay mixture is incubated for 1 hr at 25° C. and then aspirated through Whatman GF/B filters impregnated with polyethylenimine (filters prepared in advance by soaking in 2 ml of polyethylenimine per 330 mls water at room temp for 1 hour). Assay tubes were rinsed 3 times with 1-2 mls of HEPES/Triton® and aspirated through the same filter. The filter is then dried and counted in scintillant.

[2] = biological target: histone deacetylase (chicken liver S100 lysate); test: Competitive binding assay with 3H-N-desmethoxyapicidin, chick liver S100 lysate; details: for IC50: displacement of 3H-N-desmethoxyapicidin, chick liver S100
Experimental: Chick Liver. Livers from 3-5 three week old chickens are collected, rinsed in ice cold phosphate buffered saline (pH 7.4), diced into small pieces and rinsed again 3-4 times with ice cold 50 mM N-2-hydroxyethylpiperazine-N'-2-ethanesulfonic acid (HEPES) (pH 7.4) containing 0.1 mM phenylmethanesulfonyl fluoride (PMSF). The tissue is then resuspended in HEPES buffer, homogenized in a polytron homogenizer and centrifuged at 3000×g for 10 min. The supernatant is then subjected to an additional 100,000 g centifugation for 1 hour. The pellet and the floating layer of lipid are discarded and the supernatant, referred to as the chick liver S100 fraction, is retained for binding assays. After estimating the protein concentration, the supernatant (S100) is aliquoted and frozen at -80° C.
as §1, §2, §3, §4, §5

[3] = tested on: HeLa cell histones; test: Histone acetylation state in HeLa cells (AUT gel electrophoresis); format: cell-based, human; details: HeLa cells treated 4 hrs, FIG. 1, relative to untreated cells
Experimental: About 2×10^7 HeLa cells growing at 37 C were treated with various compounds in the standard tissue culture medium (MEM containing 10% fetal calf serum) for 4 hrs. Cells were then removed from the flask by scraping in PBS in a total volume of about 10 mls. The cells were washed twice in PBS and resuspended in about 3 mls lysis buffer (Lysis buffer; 0.45% Nonidet® P-40, 10 mM tris, 10 mM NaCl, 5 mM MgCl, 0.1 mM EGTA, 0.1 mM PMSF). The suspension was mixed by vortexing for 10 seconds, incubated on ice for 15 minutes and nuclei were pelleted by centrifugation through a 1 ml cushion of 30% sucrose in lysis buffer at 1300×g for 10 minutes. The supernatant was discarded and the nuclei were then resuspended in 1.0 ml water. H2 SO4 was added to a final concentration of 0.4M and the nuclear suspension was incubated on ice for 30 min. and then pelleted by centrifugation at 13,000×g for 10 miunutes. […]
Acid urea triton (AUT) polyacrylarnide gels were performed according to the methods of Alfageme et al (1974) J. Biol. Chem. 249, 3729, with modifications as described in Lennox and Cohen (Methods in Enzymology, 170, 532-549). […] Gels were either stained with Coomassie Brilliant Blue R in 7% acetic acid, 20% methanol and then destained in 7% acetic acid and 20% methanol, or treated with Enlightening (from New England Nuclear), dried and radiolabel detected by fluorography.

[4] = tested on: P. falciparum histones; test: Histone acetylation state in P. falciparum (14C acetate labeling, AUT gel); format: cell-based, Plasmodium falciparum; details: infected red blood cells, 14C sodium acetate, 2 hours, FIG. 2
Experimental: Acid urea triton (AUT) polyacrylarnide gels were performed according to the methods of Alfageme et al (1974) J. Biol. Chem. 249, 3729, with modifications as described in Lennox and Cohen (Methods in Enzymology, 170, 532-549). For optimal resolution of HeLa cell and Plasmodium falciparum histones the separation gel contained 7.5M urea, 12% acrylamide, 0.38% Triton® X 100, 0.08% bis acrylamide, and 0.87M acetic acid. The loading gels contained 7.5M urea, 0.37% Triton® X 100, 6% acrylamide, 0.04% bis acrylamide and 0.87M acetic acid. Gels were run in 1M acetic acid. Gels were pre-electrophoresed at 350V for 1 hour and run at 450 V for 3.5 hours. Gels were either stained with Coomassie Brilliant Blue R in 7% acetic acid, 20% methanol and then destained in 7% acetic acid and 20% methanol, or treated with Enlightening (from New England Nuclear), dried and radiolabel detected by fluorography.
Approximately 1×10^9 P. falciparum infected red blood cells (about 60% parasitized) were resuspended in 10 ml of RPMI 1640 containing various concentrations of test compounds and 250 μCi^14 C sodium acetate and incubated at 37° C. for 2 hours. The cells were then washed 3 time with PBS and histones were prepared as described below.
Histones were prepared according to the method of Cary et al (1994) Parasitology Research, 80, 255-258. […]

[5] = tested on: E. tenella; test: In vitro antiparasitic activity against E. tenella; format: cell-based, Eimeria tenella
From the text: ^(1) Generally following the procedure described in Crane, Schmatz, Stevens, Habbersett and Murray. Eimeria tenella: in vitro development in irradiated bovine kidney cells.(1984) Parasitology 88: 521-530.

[6] = tested on: P. falciparum; test: In vitro antiparasitic activity against P. falciparum; format: cell-based, Plasmodium falciparum
From the text: ^(2) Generally following the procedure described in Desjardins et al, "Quantitative Assessment of Antimalarial Activity In Vitro by a Semiautomated Microdilution Technique" Antimicrobial Agents and Chemotherapy, 1979, 16:710-718.

[7] = tested on: Eimeria HDAase (histone deacetylase); test: Histone deacetylase inhibition assay (Assay 1), E. tenella extract; format: biochemical, Eimeria tenella
Experimental: (§6) The standard assay contained in a total volume of 40 μL: 400 nmol HEPES-sodium, pH 7.4, 100 pmol of the substrate [AcGly-Ala-Lys(ε-^14 C-Ac)-Arg-His-Arg-Lys(ε-^14 C-Ac)-ValNH2 ] (see Kervabon et al (1979) FEBS Letters 106: 93-96) having a specific activity of approx. 114 mCi/mmol, and a source of histone deacetylase (HDAase) activity. The amount of HDAase added was chosen such that ≤20% of the substrate was consumed during the assay. The reaction was initiated by enzyme addition and allowed to proceed for 60 min at 41°. At 60 min, the reaction was terminated by the addition of a 50% slurry of Amberlite AG 50 W×4 cation exchange resin, sodium form (200-400 mesh) in 25 mM sodium acetate buffer, pH 4.2 (200 μL). The resin binds both remaining substrate and the (partially) deacetylated peptidyl products. The quenched reaction was then incubated for at least 30 min at 25° with occassional mixing, diluted with additional 25 mM sodium acetate buffer, pH 4.2 (760 μL; final volume 1000 μL), incubated for a minimum of an additional 30 min at 25° with occassional mixing, and then centrifuged at 10,000×g for 1 min. An aliquot of the supernatant (800 μL) containing the enzymatically released ^14 C-acetate was removed, mixed with Aquasol 2 liquid scintillation counter (LSC) cocktail (10 mL), and counted in a Beckman model LS-5801 LSC. […]

[8] = tested on: histone deacetylase (chicken liver extracts); test: Histone deacetylase inhibition assay (Assay 1), chicken liver extract; format: biochemical
Experimental: as §6

Row | SMILES | selectivity for E. tenella over chicken liver lysate in binding assay [1] | IC50 [2] | hyperacetylation of HeLa cell histones (shift in histone gel profile) [3] | hyperacetylation of P. falciparum histones [4] | further results
1 | CCC(=O)CCCCC[C@@H]1NC(=O)[C@H]2CCCCN2C(=O)[C@H](C(C)CC)NC(=O)[C@H](c2cn(OC)c3ccccc3c2=O)NC1=O (stereo partly shown) [Compound IIA] | selective | > 1000 nM |  |  | 
2 | CCC(=O)CCCCC[C@@H]1NC(=O)[C@H]2CCCCN2C(=O)[C@H](C(C)CC)NC(=O)[C@H](c2c[nH]c3ccccc3c2=O)NC1=O (stereo partly shown) [Compound IIB] | selective | > 1000 nM |  |  | 
3 | CCC(=O)CCCCC[C@@H]1NC(=O)[C@H]2CCCCN2C(=O)[C@H]([C@@H](C)CC)NC(=O)[C@H](Cc2cn(OC)c3ccccc23)NC1=O [Compound Ia, Apicidin] |  |  | cause a distinct shift in the histone gel profiles | cause hyperacetylation | 
4 | CC(/C=C/C(=O)O)=C\[C@@H](C)C(=O)c1ccc(N(C)C)cc1 [trichostatic acid] |  | > 1000 nM |  |  | activity in binding assay (in words), E. tenella lysate [1]: no activity; IC50 ([1]; displacement of 3H-N-desmethoxyapicidin, E. tenella S100): > 1000 nM; activity in binding assay (in words), chicken liver lysate [2]: no activity; activity against E. tenella (in words) [5]: not active; activity against P. falciparum (in words) [6]: not active; activity in enzyme inhibition assay (in words), E. tenella extract [7]: inactive; activity in enzyme inhibition assay (in words), chicken liver extract [8]: inactive
5 | CC(/C=C/C(=O)NO)=C\[C@@H](C)C(=O)c1ccc(N(C)C)cc1 [trichostatin] |  |  | cause a distinct shift in the histone gel profiles | cause hyperacetylation | 
